# Square brackets hold non-standard residues; d marks the D form. Peptide text beside a SMILES is read from it. * marks the point of attachment. Sta = CC(C)C[C@H](N)[C@@H](O)CC(=O)O; AMC = Cc1cc(=O)oc2cc(N*)ccc12; Isovaleryl = CC(C)CC(=O)*; Nle = CCCC[C@H](N)C(=O)O; Boc = CC(C)(C)OC(=O)*
# Assays:
# purified S1P(983)-C [1] = target: T1, purified S1P(983)-C (Cricetulus griseus, UniProt Q9Z2A8, T875N); assay: Effect of protease inhibitors on S1P(983)-C mediated cleavage of Ac-VFRSLK-MCA; format: biochemical, hamster; conditions: for inhibition of S1P(983)-C: result in words
# T1 construct: Truncated S1P (amino acids 1-983); GGR linker (NotI site); made in house; host or cells: SRD-12B cells (mutant CHO cells lacking S1P) stably transfected with pCMV-S1P(983)-Myc-His (TR-3117, 'S1P(983) cells'); secreted into the medium and purified on Ni-NTA
# T1 sequence (Q9Z2A8 187-983 T875N): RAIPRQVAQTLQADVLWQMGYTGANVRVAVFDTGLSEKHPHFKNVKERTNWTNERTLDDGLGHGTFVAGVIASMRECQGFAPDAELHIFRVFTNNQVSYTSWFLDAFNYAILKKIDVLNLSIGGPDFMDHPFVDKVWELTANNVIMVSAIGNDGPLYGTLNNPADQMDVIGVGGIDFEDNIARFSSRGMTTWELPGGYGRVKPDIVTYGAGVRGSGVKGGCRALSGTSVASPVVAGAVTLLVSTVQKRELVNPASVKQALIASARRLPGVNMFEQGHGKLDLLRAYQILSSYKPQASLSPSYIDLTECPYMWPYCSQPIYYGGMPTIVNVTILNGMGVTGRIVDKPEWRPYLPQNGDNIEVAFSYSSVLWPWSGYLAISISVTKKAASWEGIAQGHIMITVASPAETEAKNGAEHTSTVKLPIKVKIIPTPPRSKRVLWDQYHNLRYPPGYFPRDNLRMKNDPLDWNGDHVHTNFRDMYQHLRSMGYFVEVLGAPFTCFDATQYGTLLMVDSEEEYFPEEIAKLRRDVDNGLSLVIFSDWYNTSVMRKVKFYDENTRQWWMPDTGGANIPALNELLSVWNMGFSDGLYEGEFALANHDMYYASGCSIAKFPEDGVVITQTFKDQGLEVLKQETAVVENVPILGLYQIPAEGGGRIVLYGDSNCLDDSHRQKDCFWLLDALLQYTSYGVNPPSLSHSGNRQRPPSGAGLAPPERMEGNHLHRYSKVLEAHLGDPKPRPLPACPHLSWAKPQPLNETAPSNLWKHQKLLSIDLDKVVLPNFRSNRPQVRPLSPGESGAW
# Description: (§1) Fluorogenic Peptide Assay for S1P Activity
# S1P activity was measured fluorometrically with MCA-conjugated peptidyl substrates. […] After incubation for 0.5-5 h at 37° C., each reaction was terminated by addition of 1 ml of ice-cold 5 mM sodium EDTA. The liberated 7-amino-4-methyl-coumarin (AMC) was measured with a Perkin-ElmerLS-30 luminescence spectrometer (360 nm excitation, 460 nm emission). A standard curve of fluorescence intensity was generated with different concentrations of AMC (Promega).
# purified S1P(983)-C [2] = target: T1, purified S1P(983)-C; assay: Fluorogenic peptide assay for S1P activity (cleavage of MCA-conjugated peptides); format: biochemical, hamster; conditions: for Relative Activity: Ac-VFRSLK-MCA set at 1.0; for cleavage of the peptide: result in words
# Description: as §1
# S1P activity was measured fluorometrically with MCA-conjugated peptidyl substrates. Each reaction was carried out in 0.2 ml of assay buffer (25 mM Tris, 25 mM Mes, 25 mM acetic acid, and 1 mM CaCl2 adjusted to pH 8.0 with concentrated NaOH). Reactions contained MCA-peptide (final concentration 100 μM, added in 2 μl DMSO) and […] of purified S1P(983)-C. After incubation for 0.5-5 h at 37° C., each reaction was terminated by addition of 1 ml of ice-cold 5 mM sodium EDTA. The liberated 7-amino-4-methyl-coumarin (AMC) was measured with a Perkin-ElmerLS-30 luminescence spectrometer (360 nm excitation, 460 nm emission). A standard curve of fluorescence intensity was generated with different concentrations of AMC (Promega).
# Similar substrates have been used to assay furin, prohormone convertases, and other subtilisin-related enzymes (Nakayama, 1997). […] The sequence of this peptide corresponds to the sequence at Site-B of S1P, which is known to be cleaved by S1P in an autocatalytic reaction. Fluorescence rose linearly with time for 5 h. […] This differs from the observations with furin and the prohormone convertases, whose pH optima are generally in the range of 6-7 (Nakayama, 1997).
# The indicated fluorogenic peptide-MCA (100 μM) was incubated with 3 μg of purified S1P(983)-C at 37° C. for 5 h. The S1P activity of Ac-VFRSLK-MCA (SEQ ID NO:13, 930 pmol per min/mg protein) was set at 1.0, and the activity of the other substrates was expressed relative to this value. Each value represents the average of duplicate incubations, which varied from each other by <10%.
# [3] = 0.1 mM, 100 μM Ac-VFRSLK-MCA, 37° C., 5 h
# [4] = 1 mM, 100 μM Ac-VFRSLK-MCA, 37° C., 5 h
# [5] = 10 mM, 100 μM Ac-VFRSLK-MCA, 37° C., 5 h
# [6] = pH 8, 0.1 mM, 100 μM Ac-VFRSLK-MCA, 37° C., 5 h, read-out: AMC Liberated, % control
# [7] = pH 8, 1 mM, 100 μM Ac-VFRSLK-MCA, 37° C., 5 h, read-out: AMC Liberated, % control
# [8] = pH 8, 10 mM, 100 μM Ac-VFRSLK-MCA, 37° C., 5 h, read-out: AMC Liberated, % control
# [9] = 100 μM peptide-MCA, 3 μg S1P(983)-C, 37° C., 5 h
# [10] = 0.0003 mM, 100 μM Ac-VFRSLK-MCA, 37° C., 5 h
# [11] = 3 mM, 100 μM Ac-VFRSLK-MCA, 37° C., 5 h
# [12] = pH 8, 3 mM, 100 μM Ac-VFRSLK-MCA, 37° C., 5 h, read-out: AMC Liberated, % control
compound,measurement,setting,value
O[C@H](CS)[C@H](O)CS (racemic) [Dithiothreitol],AMC Liberated,purified S1P(983)-C [1]; [3],615 pmol/tube
same,AMC Liberated,purified S1P(983)-C [1]; [4],323 pmol/tube
same,AMC Liberated,purified S1P(983)-C [1]; [5],99 pmol/tube
same,remaining activity at 100 µM,purified S1P(983)-C [1]; [6],73%
same,remaining activity at 1000 µM,purified S1P(983)-C [1]; [7],38%
same,remaining activity at 10000 µM,purified S1P(983)-C [1]; [8],12%
CC(C)CC(=O)N[C@H](C(=O)N[C@H](C(=O)N[C@@H](CC(C)C)[C@@H](O)CC(=O)N[C@@H](C)C(=O)N[C@@H](CC(C)C)[C@@H](O)CC(=O)O)C(C)C)C(C)C [Pepstatin] (Isovaleryl-VV[Sta]A[Sta]-OH),AMC Liberated,"purified S1P(983)-C [1]; 0.01 mM, 100 μM Ac-VFRSLK-MCA, 37° C., 5 h",798 pmol/tube
same,remaining activity at 10 µM,"purified S1P(983)-C [1]; pH 8, 0.01 mM, 100 μM Ac-VFRSLK-MCA, 37° C., 5 h, read-out: AMC Liberated, % control",95%
same,inhibition of S1P(983)-C,purified S1P(983)-C [1],resistant
"CC(=O)N[C@H](C(=O)N[C@@H](Cc1ccccc1)C(=O)N[C@@H](C)C(=O)N[C@@H](CO)C(=O)N[C@@H](CC(C)C)C(=O)N[C@@H](CCCCN)C(=O)Nc1ccc2c(C)cc(=O)oc2c1)C(C)C [Ac-VFASLK-MCA, Ac-Val-Phe-Ala-Ser-Leu-Lys-MCA] (Ac-VFASLK-{AMC})",Relative Activity,purified S1P(983)-C [2]; [9],< 0.1
same,cleavage of the peptide,purified S1P(983)-C [2],no detectable cleavage
"CC(=O)N[C@H](C(=O)N[C@@H](Cc1ccccc1)C(=O)N[C@@H](CCCNC(=N)N)C(=O)N[C@@H](CO)C(=O)N[C@@H](CC(C)C)C(=O)N[C@@H](CCCCN)C(=O)Nc1ccc2c(C)cc(=O)oc2c1)C(C)C [Ac-VFRSLK-MCA, Ac-Val-Phe-Arg-Ser-Leu-Lys-MCA] (Ac-VFRSLK-{AMC})",S1P activity,purified S1P(983)-C [2]; [9],930 pmol per min/mg protein
same,Relative Activity,purified S1P(983)-C [2]; [9],1.0
same,cleavage at pH 6,purified S1P(983)-C [2]; pH 6,very little cleavage
same,pH of maximal rate of cleavage,"purified S1P(983)-C [2]; pH curve, FIG. 22C",8 pH
same,time over which fluorescence rose linearly,"purified S1P(983)-C [2]; purified secreted S1P(983)-C, 37° C.",5 h
"CC(=O)N[C@@H](CO)C(=O)NCC(=O)N[C@@H](CCCNC(=N)N)C(=O)N[C@@H](CO)C(=O)N[C@H](C(=O)N[C@@H](CC(C)C)C(=O)Nc1ccc2c(C)cc(=O)oc2c1)C(C)C [Ac-SGRSVL-MCA, Ac-Ser-Gly-Arg-Ser-Val-Leu-MCA] (Ac-SGRSVL-{AMC})",Relative Activity,purified S1P(983)-C [2]; [9],< 0.1
same,cleavage of the peptide,purified S1P(983)-C [2],did not cleave
"CCCC[C@@H](C=O)NC(=O)[C@H](CC(C)C)NC(=O)[C@H](CC(C)C)NC(C)=O [ALLN, N-acetyl-leucinal-leucinal-norleucinal] (Ac-Leu-Leu-[Nle]-aldehyde)",AMC Liberated,purified S1P(983)-C [1]; [3],811 pmol/tube
same,remaining activity at 100 µM,purified S1P(983)-C [1]; [6],97%
same,inhibition of S1P(983)-C,purified S1P(983)-C [1],resistant
"Cc1cc(=O)oc2cc(NC(=O)[C@H](CCCNC(=N)N)NC(=O)[C@H](CCCNC(=N)N)NC(=O)[C@@H](NC(=O)[C@H](CCCNC(=N)N)NC(=O)OC(C)(C)C)C(C)C)ccc12 [Boc-RVRR-MCA, Boc-Arg-Val-Arg-Arg-MCA] (Boc-RVRR-{AMC})",Relative Activity,purified S1P(983)-C [2]; [9],< 0.1
same,cleavage of the peptide,purified S1P(983)-C [2],did not cleave
same,cleavage of the peptide,purified S1P(983)-C [2]; listed as RVRR-MCA,does not cleave
"N=C(N)c1ccc(CS(=O)(=O)F)cc1 [APMSF, (4-amidinophenyl)-methancsulfonyl fluoride]",AMC Liberated,purified S1P(983)-C [1]; [4],793 pmol/tube
same,"AMC Liberated, % control",purified S1P(983)-C [1]; [4],95 % control
same,inhibition of S1P(983)-C,purified S1P(983)-C [1],resisted
"CC(=O)N[C@H](C(=O)N[C@@H](Cc1ccccc1)C(=O)N[C@@H](CCCNC(=N)N)C(=O)N[C@@H](CO)C(=O)N[C@@H](CCCNC(=N)N)C(=O)N[C@@H](CCCNC(=N)N)C(=O)Nc1ccc2c(C)cc(=O)oc2c1)C(C)C [Ac-VFRSRR-MCA, Ac-Val-Phe-Arg-Ser-Arg-Arg-MCA] (Ac-VFRSRR-{AMC})",Relative Activity,purified S1P(983)-C [2]; [9],< 0.1
same,cleavage of the peptide,purified S1P(983)-C [2],did not cleave
"O=S(=O)(F)Cc1ccccc1 [PMSF, phenylmethylsulfonyl fluoride]",AMC Liberated,purified S1P(983)-C [1]; [4],853 pmol/tube
same,"AMC Liberated, % control",purified S1P(983)-C [1]; [4],102 % control
same,AMC Liberated,purified S1P(983)-C [1]; [5],690 pmol/tube
same,"AMC Liberated, % control",purified S1P(983)-C [1]; [5],82 % control
same,inhibition of S1P(983)-C,purified S1P(983)-C [1],resisted
Aprotinin,AMC Liberated,purified S1P(983)-C [1]; [10],745 pmol/tube
same,"AMC Liberated, % control",purified S1P(983)-C [1]; [10],89 % control
same,inhibition of S1P(983)-C,purified S1P(983)-C [1],resistant
O=C(O)CN(CCOCCOCCN(CC(=O)O)CC(=O)O)CC(=O)O [EGTA],AMC Liberated,purified S1P(983)-C [1]; [11],609 pmol/tube
same,AMC Liberated,"purified S1P(983)-C [1]; 30 mM, 100 μM Ac-VFRSLK-MCA, 37° C., 5 h",305 pmol/tube
same,remaining activity at 3000 µM,purified S1P(983)-C [1]; [12],73%
same,remaining activity at 30000 µM,"purified S1P(983)-C [1]; pH 8, 30 mM, 100 μM Ac-VFRSLK-MCA, 37° C., 5 h, read-out: AMC Liberated, % control",36%
same,inhibition of S1P(983)-C,purified S1P(983)-C [1],partially inhibited
calcium,calcium concentrations at which the reaction was inhibited,purified S1P(983)-C [1],above 3 mM
same,effect of omission of calcium on the enzyme reaction,purified S1P(983)-C [1]; omission during purification and in the assay buffer,not affected
CC(=O)N[C@@H](CC(C)C)C(=O)N[C@@H](CC(C)C)C(=O)N[C@H](C=O)CCCNC(=N)N [Leupeptin],AMC Liberated,purified S1P(983)-C [1]; [4],754 pmol/tube
same,remaining activity at 1000 µM,purified S1P(983)-C [1]; [7],90%
same,inhibition of S1P(983)-C,purified S1P(983)-C [1],resistant
"c1cnc2c(c1)ccc1cccnc12 [1,10-Phenanthroline, 1,10-phenanthroline]",AMC Liberated,purified S1P(983)-C [1]; [11],361 pmol/tube
same,AMC Liberated,purified S1P(983)-C [1]; [5],253 pmol/tube
same,remaining activity at 3000 µM,purified S1P(983)-C [1]; [12],43%
same,remaining activity at 10000 µM,purified S1P(983)-C [1]; [8],30%
same,inhibition of S1P(983)-C,purified S1P(983)-C [1],partially inhibited
NCCc1ccc(S(=O)(=O)F)cc1 [Pefabloc ®],AMC Liberated,purified S1P(983)-C [1]; [4],731 pmol/tube
same,"AMC Liberated, % control",purified S1P(983)-C [1]; [4],87 % control
same,AMC Liberated,purified S1P(983)-C [1]; [11],366 pmol/tube
same,"AMC Liberated, % control",purified S1P(983)-C [1]; [11],44 % control
same,AMC Liberated,purified S1P(983)-C [1]; [5],60 pmol/tube
same,"AMC Liberated, % control",purified S1P(983)-C [1]; [5],7 % control
same,inhibition of S1P(983)-C,purified S1P(983)-C [1],inhibited by high concentrations
